What was measured:
Type in all cases: cell-based
[1] = system: ion channels of a Lymnaea Stagnalis neuron; assay: Extracellular recording, average of standard deviations of the electrical signal (Example 3); conditions: 0, 0.1, 0.3, 1, 3, 10, 30 and 100 μM in artificial cerebrospinal fluid; 10 seconds of data
Experimental: The apparatus having the configuration shown in FIG. 13 was used to measure an action of a neuron to the chemical substance Carbachol, where the neuron was prepared from Lymnaea Stagnalis. Carbachol is a chemical substance known as an analog of the neurotransmitter Acetylcholine. Carbachol (manufactured by Sigma) was dissolved in artificial cerebrospinal fluid to concentrations of 0, 0.1, 0.3, 1, 3, 10, 30 and 100 μM. The solutions having these concentrations were used to measure an electrical signal emitted by the neuron. For each Carbachol concentration, time-series data for 10 seconds was obtained from the measurement section (signal source) 101 comprising the sensor substrate, and was sampled at intervals of 100 miliseconds, and the standard deviation of the sampling data was calculated. The average of the standard deviation was plotted in FIG. 17.

[2] = system: ion channels of a Lymnaea Stagnalis neuron; assay: Extracellular recording, normal distribution of standard deviations before and after application (Example 4); conditions: after applying 50 μM; 0.478 before the application
From the text: FIG. 14 is a conceptual diagram showing a configuration of an apparatus for detecting an action of a subject chemical substance on a biological sample according to the present invention. The apparatus is the same as the apparatus of FIG. 13, except that a normal distribution approximation section 103, an average/half-width calculation section 106 and an activity categorization section 109 are employed in place of the average calculation section 105 and the activity calculation section 108. Communications between each section are indicated by a dashed line or a solid line in FIG. 13. […] Note that similar to the apparatus of FIG. 13, the unit standard deviation calculation section 102, the normal distribution approximation section 103, the average/half-width calculation section 106 and the activity categorization section 109 may be representatively software programs which are recorded in a hard disk of a computer. […] Before and after 50 μM-concentration Carbachol was applied to a Lymnaea Stagnalis neuron, signals were obtained from the measurement section (signal source) 101, and the standard deviation of the signals was calculated in a manner similar to that of Example 1. […]

[3] = system: Neurons prepared from the cerebral cortex of gestation day 17 SD rat embryos

In the case of `C[N+](C)(C)CCOC(N)=O` [Carbachol], the “average of the standard deviation every 100 miliseconds versus concentration” value [1] is reported as “the greater the Carbachol concentration, the greater the average of the standard deviation every 100 miliseconds” and the “average of the normal distribution of standard deviation values every 5 miliseconds” value [2] is reported as 0.703.
For ω-conotoxin GVIA [Ca antagonist], the “frequency at which the noise has a maximal value” [3] was “about 4 Hz” and the “noise intensity in the absence of the Ca antagonist relative to that in its presence” value [3] was “about 1.5 times”.

Reference: US20030113833A1, “Device for measuring extracellular potential, method of measuring extracellular potential by using the same and apparatus for quickly screening drug provided therewith” (priority 2001, published 2003)
